One data set is described as follows: Measurement of Log P values by HPLC on reversed phase columns (EEC directive 79/831 Annex V.A8). In kind it is physicochemical. Conditions: LogP. On the procedure:
Measurement of Log P values as provided herein was performed according to EEC directive 79/831 Annex V.A8 by HPLC (High Performance Liquid Chromatography) on reversed phase columns with the following methods: • ^[a] Log P value is determined by measurement of LC-UV, in an acidic range, with 0.1% formic acid in water and acetonitrile as eluent (linear gradient from 10% acetonitrile to 95% acetonitrile). • ^[b] Log P value is determined by measurement of LC-UV, in a neutral range, with 0.001 molar ammonium acetate solution in water and acetonitrile as eluent (linear gradient from 10% acetonitrile to 95% acetonitrile). • ^[c] Log P value is determined by measurement of LC-UV, in an acidic range, with 0.1% phosphoric acid and acetonitrile as eluent (linear gradient from 10% acetonitrile to 95% acetonitrile).
If more than one Log P value is available within the same method, all the values are given and separated by “+”.
Calibration was done with straight-chain alkan2-ones (with 3 to 16 carbon atoms) with known Log P values (measurement of Log P values using retention times with linear interpolation between successive alkanones). Lambda-max-values were determined using UV-spectra from 200 nm to 400 nm and the peak values of the chromatographic signals
`Cc1ccc(CC(CON2C(=O)c3ccccc3C2=O)NC(=O)c2nc(C3CC3)ncc2Oc2cccc(C(F)(F)F)c2)c(C)c1` (racemic) [Compound 3-01, 2-cyclopropyl-N-{(2RS)-1-(2,4-dimethylphenyl)-3-[(1,3-dioxo-1,3-dihydro-2H-isoindol-2-yl)oxy]propan-2-yl}-5-[3-(trifluoromethyl)phenoxy]pyrimidine-4-carboxamide] registered a chromatographic logP of 5.4.
Still for that read-out and setting: then `C#Cc1cccc(Oc2cnc(C)nc2C(=O)N[C@@H](CON2C(=O)c3ccccc3C2=O)Cc2ccc(C)cc2C)c1` (racemic) [Compound 3-02], with 4.41.
As to `CSc1ncc(Br)c(C(=O)N[C@@H](CON2C(=O)c3ccccc3C2=O)Cc2ccc(C)cc2Cl)n1` (racemic) [Compound 3-03], the chromatographic logP amounted to 4.62.
`Cc1ccc(CC(CON)NC(=O)c2nc(C3CC3)ncc2Oc2cccc(C(F)(F)F)c2)c(C)c1` (racemic) [Compound 4-01, N-[(2RS)-1-(aminooxy)-3-(2,4-dimethylphenyl)propan-2-yl]-2-cyclopropyl-5-[3-(trifluoromethyl)phenoxy]pyrimidine-4-carboxamide]: the chromatographic logP came to 3.7.
As to `C#Cc1cccc(Oc2cnc(C)nc2C(=O)N[C@@H](CON)Cc2ccc(C)cc2C)c1` (racemic) [Compound 4-02], the chromatographic logP is 2.53.
`CSc1ncc(Br)c(C(=O)N[C@@H](CON)Cc2ccc(C)cc2Cl)n1` (racemic) [Compound 4-03] returned a chromatographic logP of 2.58.
Regarding `CSc1ncc(Br)c(C(=O)N[C@@H](CON2C(=O)c3ccccc3C2=O)Cc2ccc(C)cc2C)n1` (racemic) [Compound 6a-01], the chromatographic logP is 4.55.
The compound `CSc1ncc(Br)c(C(=O)N[C@@H](CON)Cc2ccc(C)cc2C)n1` (racemic) [Compound 6b-01] yielded a chromatographic logP of 2.49.
The same measure, in the same setting: then `Cc1ccc(CC2CON=C(c3nc(C)ncc3Br)N2)c(C)c1` (racemic) [Compound 7-01, (5RS)-3-(5-bromo-2-methylpyrimidin-4-yl)-5-(2,4-dimethylbenzyl)-5,6-dihydro-4H-1,2,4-oxadiazine], with 3.05; and `CSc1ncc(Br)c(C2=NOC[C@@H](Cc3ccc(C)cc3C)N2)n1` (racemic) [Compound 7-02], with 4.05; and `CSc1ncc(Br)c(C2=NOC[C@@H](Cc3ccc(C)cc3Cl)N2)n1` (racemic) [Compound 7-03], with 4.08.
On to `Cc1ccc(C[C@H](N)CC(N)=O)c(C)c1` (racemic) [Compound 9-04], for which the chromatographic logP is 0.69.
Still for that read-out and setting: under `Cc1ccc([C@H](N)CC(N)=O)c(C)c1` (racemic) [Compound 9-05] stands 0.55.
For the compound `Cc1ccc(C[C@H](N)CCN)c(C)c1` (racemic) [Compound 9-06], the chromatographic logP was determined as 0.23.
Still for that read-out and setting: under `COc1ccc(C[C@H](CCl)NC(=O)c2nc(C)ncc2Oc2cccc(C(F)(F)F)c2)c(Cl)c1` (racemic) [Compound 10-01] stands 4.47; under `Cc1ccc(C[C@H](CCl)NC(=O)c2nc(C)ncc2Oc2cccc(C(F)(F)F)c2)c(Cl)c1` (racemic) [Compound 10-02], 4.74.
With `Cc1ccc(C[C@H](CCl)NC(=O)c2nc(C)ncc2Oc2cccc(C3CC3)c2F)c(Cl)c1` (racemic) [Compound 10-03], the chromatographic logP is 4.93.
For the compound `Cc1ccc(C[C@H](CCl)NC(=O)c2nc(C)ncc2Oc2cccc(Cl)c2)c(Cl)c1` (racemic) [Compound 10-04], the chromatographic logP worked out at 4.61.
Still for that read-out and setting: under `Cc1ccc(C[C@H](CCl)NC(=O)c2nc(C)ncc2Oc2cccc(Cl)c2F)c(Cl)c1` (racemic) [Compound 10-05] stands 4.7; under `Cc1ncc(Oc2cccc(C(F)(F)F)c2)c(C(=O)N[C@@H](CCl)Cc2ccc(Br)cc2C)n1` (racemic) [Compound 10-06], 4.86.
The same measure, in the same setting: under `Cc1ncc(Oc2cccc(C(F)(F)F)c2)c(C(=O)N[C@@H](CCl)Cc2csc(C(F)(F)F)c2)n1` (racemic) [Compound 10-07] stands 4.55.
On the same count and under the same terms, under `Cc1ncc(Oc2cccc(C(F)(F)F)c2)c(C(=O)N[C@@H](CCl)Cc2ccc(OC(F)F)cc2Cl)n1` (racemic) [Compound 10-08] stands 4.51; under `Cc1ncc(Oc2cccc(C(F)(F)F)c2)c(C(=O)N[C@@H](CCl)Cc2ccc(SC(F)(F)F)cc2)n1` (racemic) [Compound 10-09], 4.92; under `Cc1ncc(Oc2cccc(C(F)(F)F)c2)c(C(=O)N[C@@H](CCl)Cc2ccc(C(F)F)cc2Cl)n1` (racemic) [Compound 10-10], 4.37.
`Cc1ccc(C[C@H](CCl)NC(=O)c2nc(C)ncc2Oc2cccc(C3CC3)c2F)c(C)c1` (racemic) [Compound 10-11]: the chromatographic logP was 4.86.
`COc1ccc(C[C@H](CCl)NC(=NO)c2nc(C)ncc2Oc2cccc(C(F)(F)F)c2)c(Cl)c1` (racemic) [Compound 11-01] gave a chromatographic logP of 4.01.
`Cc1ccc(C[C@H](CCl)NC(=NO)c2nc(C)ncc2Oc2cccc(C(F)(F)F)c2)c(Cl)c1` (racemic) [Compound 11-02] yielded a chromatographic logP of 4.31.
The same measure, in the same setting: then `Cc1ccc(C[C@H](CCl)NC(=NO)c2nc(C)ncc2Oc2cccc(C3CC3)c2F)c(Cl)c1` (racemic) [Compound 11-03], with 4.62.
Consider `Cc1ccc(C[C@H](CCl)NC(=NO)c2nc(C)ncc2Oc2cccc(C3CC3)c2F)c(C)c1` (racemic) [Compound 11-04], for which the chromatographic logP came to 4.51.
`Cc1ccc(C[C@H](CCl)NC(=NO)c2nc(C)ncc2Oc2cccc(Cl)c2)c(Cl)c1` (racemic) [Compound 11-05] came in with a chromatographic logP of 4.28.
As to `Cc1ccc(C[C@H](CCl)NC(=NO)c2nc(C)ncc2Oc2cccc(Cl)c2F)c(Cl)c1` (racemic) [Compound 11-06], the chromatographic logP came to 4.16.
Still for that read-out and setting: then `Cc1ncc(Oc2cccc(C(F)(F)F)c2)c(C(=NO)N[C@@H](CCl)Cc2csc(C(F)(F)F)c2)n1` (racemic) [Compound 11-08], with 4.12; and `Cc1ncc(Oc2cccc(C(F)(F)F)c2)c(C(=NO)N[C@@H](CCl)Cc2ccc(OC(F)F)cc2Cl)n1` (racemic) [Compound 11-09], with 4.08.
The same measure, in the same setting: then `Cc1ncc(Oc2cccc(C(F)(F)F)c2)c(C(=NO)N[C@@H](CCl)Cc2ccc(SC(F)(F)F)cc2)n1` (racemic) [Compound 11-10], with 4.66.
Still for that read-out and setting: under `Cc1ncc(Oc2cccc(C(F)(F)F)c2)c(C(=NO)N[C@@H](CCl)Cc2ccc(C(F)F)cc2Cl)n1` (racemic) [Compound 11-11] stands 4.02; under `Cc1ccc(CC(CCl)NC(=O)c2nc(C)ncc2Br)c(C)c1` (racemic) [Compound 12-01, 5-bromo-N-[(2RS)-1-chloro-3-(2,4-dimethylphenyl)propan-2-yl]-2-methyl-pyrimidine-4-carboxamide], 3.66; under `Cc1ccc(CC(CCl)NC(=NO)c2nc(C)ncc2Br)c(C)c1` (racemic) [Compound 13-01, 5-bromo-N-[(2RS)-1-chloro-3-(2,4-dimethylphenyl)propan-2-yl]-N′-hydroxy-2-methylpyrimidine-4-carboximidamide], 3.26.
Compound `Cc1ncc(Oc2cccc(Cl)c2)c(C(N)=NO[C@H](F)C(=O)c2ccc(Cl)cc2)n1` (racemic) [Compound 19-04] returned a chromatographic logP of 3.4.
`Cc1ccc(CC2CCN=C(c3nc(C)ncc3Oc3cccc(Cl)c3)N2)c(C)c1` (racemic) [Compound I-022, 5-(3-chlorophenoxy)-2-methyl-4-[(6RS)-6-[(2,4-dimethylphenyl)methyl]-1,4,5,6-tetrahydropyrimidin-2-yl]pyrimidine]: the chromatographic logP came to 2.59.
Take `Cc1ncc(Oc2cccc(Cl)c2)c(C2=NOC(C)(C)[C@@H](c3ccc(F)cc3F)N2)n1` (racemic) [Compound I-035]: the chromatographic logP came out at 3.84.
On to `O=C(O)c1nc(C2CC2)ncc1Oc1cccc(C(F)(F)F)c1` [Compound 1-02, 2-cyclopropyl-5-[3-(trifluoromethyl)phenoxy]pyrimidine-4-carboxylic acid], for which the chromatographic logP turned out to be 2.49.
On the same count and under the same terms, under `Cc1ncc(Oc2cccc(Cl)c2)c(C(=O)O)n1` [Compound 1-03] stands 2; under `Cc1ncc(Oc2cccc(Br)c2)c(C(=O)O)n1` [Compound 1-04], 2.15; under `C#Cc1cccc(Oc2cnc(C)nc2C(=O)O)c1` [Compound 1-05], 1.77.

The data set is the same for the next values; noted with them: method [a]: LC-UV, acidic range, 0.1% formic acid in water and acetonitrile as eluent; read-out: LogP.
On to `N[C@H](CCl)Cc1ccc(SC(F)(F)F)cc1` (racemic) [Compound 9-02], for which the chromatographic logP was found to be 1.68.
On the same count and under the same terms, then `N[C@H](CCl)Cc1csc(C(F)(F)F)c1` (racemic) [Compound 9-03], with 1.29; and `Cc1ncc(Oc2cccc(C(F)(F)F)c2)c(C2=NOCC(Cc3ccc(C#C[Si](C)(C)C)cc3C)N2)n1` (racemic) [Compound I-010, trimethyl-[2-[3-methyl-4-[[(5RS)-3-[2-methyl-5-[3-(trifluoro-methyl)phenoxy]pyrimidin-4-yl]-5,6-dihydro-4H-1,2,4-oxadiazin-5-yl]methyl]phenyl]ethynyl]silane], with 5.79.

The data set is the same for the next values; noted with them: reversed phase HPLC column, method [a]: LC-UV, acidic range, 0.1% formic acid in water and acetonitrile as eluent; read-out: LogP.
For `Cc1ccc(C[C@H](N)CON2C(=O)c3ccccc3C2=O)c(C)c1` (racemic) [Compound 2-01], the chromatographic logP was 1.55.
